This test has as its system Cdc2 (Cdk1) tyrosine 15-phosphorylation in WiDr cells. Briefly: Cdc2 (Cdk1) tyrosine 15-phosphorylation-inhibitory effect in gemcitabine-treated WiDr cells (ELISA). The format is cell-based. The settings on record: Homo sapiens, gemcitabine 100 nM 24 hours, then test compound + nocodazole 8 hours, read-out: Cdc2-Y15 Phosphorylation-Inhibitory Effect (WiDr, + gemcitabine) (EC50). The source says:
Pharmacological Test 2 (Method of Determining Drug Potency with Cells (Cdc2 (Cdk1) Tyrosine 15-Phosphorylation-Inhibitory Effect))
Fetal bovine serum (FBS) was obtained from Morgate; media RPMI1640 and DMEM were from Invitrogen; camptothecin was from Sigma; gemcitabine was from Nippon Eli Lilly; nocodazole and protease inhibitor cocktail were from Sigma; rabbit anti-Cdc2 antibody and mouse anti-Cdc2 antibody were from Santa Cruz Biotechnology; rabbit anti-tyrosine 15-phosphorylated Cdc2 antibody and horseradish peroxidase-labeled anti-mouse IgG antibody were from Cell Signaling Technology; sure blue reserve TMB peroxidase substrate was from Kirkegaard and Perry Laboratories.
Human non-small cell lung cancer cells (NCI-H1299) and human colon cancer cells (WiDr) were obtained from American Type Culture Collection (ATCC).
In the method of using WiDr cells, the cells were suspended in a medium of 10% FBS-added DMEM, and the cell suspension was applied to a 96-well Nunclondelta-processed plastic plate in an amount of 2000 cells/100 μL/well, in which the cells were incubated overnight in 5% CO2-95% air at 37° C. […] Cdc2 was determined through ELISA as follows: A rabbit anti-Cdc2 antibody solution, which had been diluted 200-fold with 50 mM carbonate-bicarbonate buffer (pH 9.6), was applied to a 96-well maxisorp plastic plate in an amount of 50 μL/well, and statically kept overnight at 4° C. so as to fix the antibody on the plate. […] Then, 1 M hydrochloric acid was added to it in an amount of 100 μL/well to stop the reaction, and this was analyzed through colorimetry. Tyrosine 15-phosphorylated Cdc2 was determined through ELISA as follows: A rabbit anti-tyrosine 15-phosphorylated Cdc2 antibody solution, which had been diluted 100-fold with 50 mM carbonate-bicarbonate buffer (pH 9.6), was applied to a 96-well maxisorp plastic plate in an amount of 50 μL/well, and statically kept overnight at 4° C. so as to fix the antibody on the plate. […]

Molecules are shown by their SMILES. Counter-ions that a name gives are not always drawn.

For `CN1Cc2cc(Nc3ncc4c(=N)n(-c5c(Cl)cccc5Cl)c(=O)[nH]c4n3)ccc2C2(CC2)C1` [Example 1, 3-(2,6-dichlorophenyl)-4-imino-7-[(2′-methyl-2′,3′-dihydro-1′H-spiro[cyclopropane-1,4′-isoquinolin]-7′-yl)amino]-3,4-dihydropyrimido[4,5-d]pyrimidin-2(1H)-one dihydrochloride], the EC50 was determined as 21 nM. The value for `CN1Cc2cc(Nc3ncc4c(=N)n(-c5c(Cl)cccc5Cl)c(=O)[nH]c4n3)ccc2C(C)(C)C1` [Example 2, 3-(2,6-dichlorophenyl)-4-imino-7-{[2,4,4-trimethyl-1,2,3,4-tetrahydroisoquinolin-7-yl]amino}-3,4-dihydropyrimido[4,5-d]pyrimidin-2(1H)-one] was 46 nM.

Consider `CN1Cc2cc(Nc3ncc4c(=N)n(-c5c(Cl)cccc5Cl)c(=O)[nH]c4n3)ccc2C1(C)C` [Example 7, 3-(2,6-dichlorophenyl)-4-imino-7-[(1,1,2-trimethyl-2,3-dihydro-1H-isoindol-5-yl)amino]-3,4-dihydropyrimido[4,5-d]pyrimidin-2(1H)-one], for which the EC50 came out at 24 nM.

Source of the values: US8436004B2, “Bicycloaniline derivative” (MSD K.K., priority 2007, dated 2013).
